Data published in EP3856749B1, “WATER-SOLUBLE, NON-AGGREGATED SILICON PHTALGCYANINE COMPOUND HAVING IN VITRO ANTICANCER EFFECT AGAINST CANCER TYPES OF LUNG, LIVER, BREST AND MELANOMA” (Karadeniz Teknik Universitesi, priority 2018, dated 2020).

Experiments:
[1] = system: prostate (DU-145) cancer cell lines; test: Cytotoxicity test (MTT), DU-145; type: cell-based, human; conditions: DU-145, 48 hours
Source text: (§1) Cytotoxic effects of test substances are testes by means of using human breast (BT-20), melanoma (SK-Mel 128), prostate (DU-145), liver (SNU-398) and lung (A549) cancer cell lines. Toxic effects of test substances on the healthy normal cells are studied on human fibroblast cells (HFC).
(§2) Cell suspension prepared from alpha-MEM having 10% FBS (Fetal Bovine Serum), fungizone and penicillin/streptomycin is distributed as 5×10^3 of cell in each well in the cell culture containers comprising 96 wells for the test. […] Cells are kept in a humid environment at 5% of CO2 at 37°C for 48 hours in the presence of the test substance, of which final densities are of 200-0.09 µg/mL. 10 µL from the MTT solution (3-[4,5-dimethyltioazol-2,5-diphenyltetrazolium bromide) prepared at a density of 5 mg/mL is added to each well so as to determine the cell generation rate at the end of incubation period. After culture containers are kept in the humid environment at 5% of CO2 at 37°C for 2 hours, the content is emptied and dimethyl sulphoxide (DMSO) is added in the value of 100 µL/well on cells so as to solubilize intracellular formazan crystals. After incubation for 30 minutes, the color intensity is measured in the wave length of 570/620 by means of ELISA Microplate Reader (Tecan, Sunrise).

[2] = system: lung (A549) cancer cell lines; test: Cytotoxicity test (MTT), A549; type: cell-based, human; conditions: A549, 48 hours
Source text: as §1, §2

CT-DNA [3] = test: Determination of DNA melting temperature; type: binding; conditions: absorbance at 260 nm; CT-DNA alone 75.57 °C
Description: Studies pertaining to determination of DNA melting temperature is carried out by means of Cary 100 Bio UV-Visible Spectrophotometer with Varian Cary Temperature Controller unit.
(§3) The absorbance is measured at 260 nm at every 0.5 °C in the range of 60-90 °C by increasing temperature of the cell comprising the basin by 1 °C every minute by means of employing thermal melting program. Values Tm are automatically calculated by the device from t(°C)-Absorbance curve of CT-DNA drawn in the presence and absence of the compound depending on its absorbance in 260 nm.
as §3, with “program of DNA melting temperature of the compound 3a.” for “program.”, “3a” for “the compound”, “nm. While the melting temperature of CT-DNA is at 75.57 °C, the melting temperature of the compounds CT-DNA + 3a is at 81.82 °C. An increase at the melting temperatures strengthens the potential that the compounds becomes an intercalative agents.” for “nm.”

[4] = system: supercoiled pBR322 plasmid DNA; test: Nuclease activity under irradiation (photonuclease); type: biochemical; conditions: for nuclease activity under irradiation: light for 15 minutes, 700 nm filter, increasing concentrations
Source text: (§4) Cleavage activities of supercoiled pBR322 plasmid DNA of the compounds are observed by means of using agarose-gel electrophoresis. When the supercoiled is exposed to pBR322 plasmid DNA electrophoresis, it is observed that the supercoiled form (Form I) migrates in the swiftest manner. In case of a cut occurred on a single chain, the supercoiled form creates a nicked form (Form II) moving in the slowest manner. In case both chains are cut, the linear form (Form III) migrating between Form I and Form II.
It is used General Electric quartz lamb of 300 watts and optical filter of 700 nm for compounds illustrated as Formula I and II to light in the proper wave length so as to observe that the supercoiled pBR322 plasmid DNA is cleavage by the compounds and so as to evaluate usability potentials of the compounds in the photo-dynamic therapy. In this study, total volume of reaction mixture contained 50 mM Tris-HCl (pH 7.0), super-coiled pBR322 plasmid DNA (250 ng), and increasing concentrations of compounds. Afterwards, well contents are exposed to light for 15 minutes. At the end of this period, after mixtures are incubated in darkness at 37 °C for an hour, reactions are stopped by means of above-mentioned methods and cut products are observed on the agarose gel under UV light.

pBR322 plasmid DNA [5] = test: Determination of reactive oxygen types in photonuclease activity; type: biochemical; conditions: 3a (50 µM), stimulation with light
Description: Inhibition tests are performed in the presence of standard radical scavengers so as to determine active oxygen types effective on its cleavage in the presence of light on pBR322 plasmid DNA of complexes. For that purpose, it used ethanol (EtOH), methanol (MeOH) and dimethyl sulphoxide (DMSO) as hydroxyl radical scavenger; sodium azide and L-histidine as singlet oxygen scavenger; SOD as superoxide radical scavenger, EDTA as chelating agent and catalase as hydrogen peroxide adsorbent. It is also observed whether or not results obtained by using different types scavenging the same type of radicals support each other. Different reaction mixtures are formed by means of adding pBR322 plasmid DNA and complex in the efficient concentration and any one of above mentioned standard radical scavengers in variable concentrations into 50 mM Tris-HCl buffer. Subsequent to incubation of different reaction mixture formed at 37°C for an hour, it comprises the process of examining and monitoring these products. […]

CT-DNA [6] = test: UV-Vis absorption titration; type: binding; conditions: in the presence of CT-DNA; 5 mM Tris-HCl/50 mM NaCl (pH 7.2)
Description: Stock solutions of compounds are obtained by means of being solved in water and stored in a room temperature in darkness. Stock solutions of CT-DNA are prepared in 5 mM Tris-HCl buffer of 7.2 pH with 50 mM NaCl and stored at 4 °C for three days. At the end of this period, absorbance rates of 260 and 280 nm are calculated so as to determine rate of DNA impurity. […] Concentration of DNA is measured and calculated at 260 nm by using molar excitation coefficient of (ε) 6600 M^-1cm^-1. All studies with the interaction between compounds and CT-DNA are carried out in 5 mM Tris-HCl/50 mM NaCl (pH 7.2) by keeping stock solutions prepared in water at the stable concentration and changing CT-DNA concentration. While carrying out this process, absorbance of CT-DNA is eliminated by adding CT-DNA in an equal amount on the blind solution.
Variations in the absorbance intensity are presented in percent. %H = [(A1−A2)/(A1)] × 100 [formula]
A1: Maximum absorbance of the compound; A2: Absorbance of the compound subsequent to addition of DNA.

[7] = system: breast (BT-20) cancer cell lines; test: Cytotoxicity test (MTT), BT-20; type: cell-based, human; conditions: BT20, 48 hours
Source text: as §1, §2

[8] = system: liver (SNU-398) cancer cell lines; test: Cytotoxicity test (MTT), SNU-398; type: cell-based, human; conditions: SNU-398, 48 hours
Source text: as §1, §2

topoisomerase I enzyme = target: T1, topoisomerase I enzyme (Homo sapiens, UniProt P11387); test: Topoisomerase I inhibition (relaxation method); type: biochemical; conditions: 1 U Topo I, pBR322 plasmid DNA; 7a 12.5-37.5 µM; 3a 12.5-25 µM
T1 sequence (P11387 1-765): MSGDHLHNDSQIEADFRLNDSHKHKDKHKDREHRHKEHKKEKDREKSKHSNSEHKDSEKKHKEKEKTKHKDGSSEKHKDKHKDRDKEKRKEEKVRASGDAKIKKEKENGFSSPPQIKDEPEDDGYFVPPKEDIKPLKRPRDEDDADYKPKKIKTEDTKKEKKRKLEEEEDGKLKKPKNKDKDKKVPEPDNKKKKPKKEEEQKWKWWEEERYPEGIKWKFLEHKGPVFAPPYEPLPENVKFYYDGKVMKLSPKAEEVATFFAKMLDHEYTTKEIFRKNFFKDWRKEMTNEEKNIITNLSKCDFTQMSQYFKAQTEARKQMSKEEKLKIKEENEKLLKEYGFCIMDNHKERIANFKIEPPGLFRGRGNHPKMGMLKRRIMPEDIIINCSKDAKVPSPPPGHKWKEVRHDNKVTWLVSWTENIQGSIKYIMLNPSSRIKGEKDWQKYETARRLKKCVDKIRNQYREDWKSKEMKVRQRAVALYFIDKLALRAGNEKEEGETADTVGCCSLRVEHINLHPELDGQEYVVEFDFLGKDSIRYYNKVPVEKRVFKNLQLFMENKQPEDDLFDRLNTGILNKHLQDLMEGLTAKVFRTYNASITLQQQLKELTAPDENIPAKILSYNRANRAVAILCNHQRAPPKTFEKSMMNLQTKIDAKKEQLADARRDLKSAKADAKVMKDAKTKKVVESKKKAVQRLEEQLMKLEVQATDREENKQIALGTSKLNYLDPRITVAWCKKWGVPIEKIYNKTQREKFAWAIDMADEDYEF
Description: After incubation process, samples are loaded to 0.8 % of agarose gel, exposed to electrophoresis in the running buffer by applying 40 volt of current for 3 hours and forms obtained are observed on the agarose gel under UV light.

[9] = system: melanoma (SK-Mel 128) cancer cell lines; test: Cytotoxicity test (MTT), SK-Mel 128; type: cell-based, human; conditions: SK-MEL 128, 48 hours
Source text: as §1, §2

CT-DNA [10] = test: Competitive EB binding experiment; conditions: EB (50 µM), CT-DNA (50 µM), pH 7.2
Description: It is observed in competitive EB binding studies of compounds how the wave length and absorbance, in which EB (50 µM) whose concentration is kept stable presents the maximum absorbance, vary with addition of CT-DNA (50 µM) and then with simultaneous addition of DNA and complex. This study is carried out in the buffer of 5 mM Tris-HCl/50 mM NaCl (pH 7.2).

[11] = system: supercoiled pBR322 plasmid DNA; test: Hydrolytic nuclease activity (agarose gel electrophoresis); type: biochemical; conditions: 7a 6.25-50 µM; 3a 12.5-100 µM; without light
Source text: as §4
Total volume of reaction mixture contained 50 mM Tris-HCl (pH 7.0), supercoiled pBR322 plasmid DNA (250 ng), and different concentrations of compound. While the well content is loaded to 0.8 percent of agarose gel (comprising 0.25 µg/mL EB), gel loading dye also added and loaded to the gel. After addition of running buffer, it is exposed to electrophoresis by applying a current of 100 volt for 90 minutes.

[12] = system: cervical cancer cell line (HeLa); conditions: cited from earlier work
pBR322 plasmid DNA [13] = test: Oxidative nuclease activity; type: biochemical; conditions: with oxidative agent (H2O2, AA, ME) under irradiation
Description: Auxiliary reagents are added to H2O2, AA, ME medium so as to examine oxidative cleavage activities of the compounds.
In this study, pBR322 plasmid DNA is formed of buffer solution (50 mM Tris-HCl (pH 7)), auxiliary reagents and increasing concentrations of compounds, such that well contents are of 10 µL. The oxidative nuclease activity studies were performed under light irradiation. At the end of this period, after mixtures are incubated in darkness at 37 °C for an hour, reaction is stopped by means of above-mentioned methods and cleavage products are observed on the agarose gel under UV light.
Subsequent to the determination of hydrolytic nuclease activities of the compounds 7a and 3a, cleavage reactions are carried out by way of adding hydrogen peroxide (H2O2) (0.4 M), ascorbic acid (AA) (2.5 mM) and mercaptoethanol (ME) (0.4 M) so as to examine its oxidative cleavage capabilities with/without irradiation and the related results are given in Figure 4.

topoisomerase II enzyme = test: Topoisomerase II inhibition (relaxation method); type: biochemical; conditions: 1 U Topo II, pBR322 plasmid DNA; 7a 12.5-37.5 µM; doxorubicin as standard
Description: After incubation process, samples are loaded to 0.8 % of agarose gel, exposed to electrophoresis in the running buffer by applying 40 volts of current for 3 hours and forms obtained are observed on the agarose gel under UV light.

Row | Compound | CC50 [1] [µM] | CC50 [2] [µM] | melting temperature of CT-DNA + compound (CT-DNA [3]) [°C] | nuclease activity under irradiation at 100 µM ([4]; in the presence of light, concentration of 100 µM) | nuclease activity under irradiation [4] | effect of singlet oxygen scavengers NaN3 and L-Histidine on cleavage (pBR322 plasmid DNA [5]) | hypochromism (CT-DNA [6]) [%] | red-shift (CT-DNA [6]) [nm] | CC50 [7] [µM] | CC50 [8] [µM] | topoisomerase I inhibition effect (topoisomerase I enzyme) | CC50 [9] [µM] | competitive EB binding (CT-DNA [10]) | hydrolytic nuclease activity [11] | cell survival (photocytotoxicity) [12] [%] | oxidative cleavage activity (pBR322 plasmid DNA [13]) | topoisomerase II inhibition effect (topoisomerase II enzyme)
1 | bis(3,5-bis{3-[3-trimethylamino)phenoxy]propoxy}phenyl)methoxy)phthalocyaninato silicon (IV) Iodide [3a] | 4.63 | 2.24 | 81.82 | destroys pBR322 plasmid DNA completely | exhibits the nuclease activity depending on the concentration | prevent the cleavage | 25.40 | 6 | 3.96 | 0.86 | supercoiled form rate increases | 1.47 | compete with EB so as to bind with CT-DNA | observed for the compound 3a depending on the concentration |  |  | 
2 | c1ccc(C(O[Si]2(OC(c3ccccc3)(c3ccccc3)c3ccncc3)n3c4c5ccccc5c3N=C3N=C(N=c5c6ccccc6c(n52)=NC2=NC(=N4)c4ccccc42)c2ccccc23)(c2ccccc2)c2ccncc2)cc1 [compound 3, axially di-(alpha,alpha-diphenyl-4-pyridylmethoxy) silicon(IV) phthalocyanine] |  |  |  |  |  |  |  |  |  |  |  |  |  |  | 17 |  | 
3 | bis(3,5-bis{3-[3-(diethylmethylamino)phenoxy]propoxy}phenyl)methoxy)phthalocyaninato silicon (IV) Iodide [7a] | 2.99 | 1.18 |  |  | exhibits the nuclease activity depending on the concentration |  | 43.64 | 6 | 1.44 | 0.49 | supercoiled form rate increases | 1.13 | compete with EB so as to bind with CT-DNA | observed for the compound 7a depending on the concentration |  | significantly high cleavage activity | Effective results are observed compared to doxorubicin
